Earlier results as cited in patent publication US11723868B2, “Biodegradable polymer microsphere compositions for parenteral administration” (Adare Pharmaceuticals USA, Inc., priority 2016, dated 2023).

Assays:
[1] = properties of drugs used, Table B
[2] = properties of drugs used, Table B; remark: listed apart in the source

| Compound | Water Solubility [1] [µg/mL] | logP [2] |
| --- | --- | --- |
| COc1cc2c(cc1Cc1cccc(Cl)c1F)c(=O)c(C(=O)O)cn2[C@H](CO)C(C)C [Drug A, Elvitegravir] | <3 | 4.67 |
| C#C[C@]1(O)CC[C@H]2[C@@H]3CCC4=CC(=O)CC[C@@H]4[C@H]3C(=C)C[C@@]21CC [Drug C, Etonogestrel] | <7 | 3.40 |
| C[C@@H](O)[C@@H]1NC(=O)[C@H](CCCCN)NC(=O)[C@@H](Cc2c[nH]c3ccccc23)NC(=O)[C@H](Cc2ccccc2)NC(=O)[C@@H](NC(=O)[C@H](N)Cc2ccccc2)CSSC[C@@H](C(=O)N[C@H](CO)[C@@H](C)O)NC1=O [Drug D, Octreotide] | >10000 | – |
